Measurements published in patent US11780826B2 (Amgen Inc., priority 2017, dated 2023).

System: Bovine cardiac myofibrils
Test: In vitro model of dose-dependent myofibril ATPase modulation (AC1.4, pyruvate kinase/lactate dehydrogenase-coupled ATPase assay at pCa25)
Type: biochemical
Conditions: concentration at which ATPase activity was 1.4-fold higher than the bottom of the dose curve, mean of a minimum of two independent tests
In short: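 Absorbance at 340 nm tracked ATP hydrolysis through pyruvate kinase/lactate dehydrogenase coupling (0.5 mM NADH, 1.5 mM PEP). Myofibrils from detergent-homogenized bovine heart, 1 mM ATP, pH 6.80, EGTA/CaCl2 buffering. Dose-response curves fitted with a four-parameter Hill equation.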

Which AC1.4 does the source give for `O=C(N[C@@H](c1ccc(C(F)(F)F)cc1F)C1CC1)[C@H]1C[C@H]2C[C@H]2N1C(=O)c1cccc(C(O)C(F)(F)F)c1` (stereo partly drawn) [Example 547, (1R,3R,5R)-N-((R)-cyclopropyl(2-fluoro-4-(trifluoromethyl)phenyl)methyl)-2-(3-(2,2,2-trifluoro-1-hydroxyethyl)benzoyl)-2-azabicyclo[3.1.0]hexane-3-carboxamide] here?
Its AC1.4 is 2.836 µM.

How did the AC1.4 turn out when `CS(=O)(=O)c1cncc(C(=O)N2[C@@H](C(=O)N[C@@H](c3ccc(C(F)(F)F)c(F)c3)C3CC3)C[C@H]3C[C@H]32)c1` [Example 548, (1R,3R,5R)-N-((R)-cyclopropyl(3-fluoro-4-(trifluoromethyl)phenyl)methyl)-2-((5-(methylsulfonyl)-3-pyridinyl)carbonyl)-2-azabicyclo[3.1.0]hexane-3-carboxamide] was run?
The AC1.4 was 2.66 µM.

How did the AC1.4 turn out when `N#CC1CN(S(=O)(=O)N2CCC[C@H](C(=O)N3CCC[C@@H]3C(=O)NCc3cc(Cl)ccc3F)C2)C1` [Example 549, N-(5-chloro-2-fluorobenzyl)-1-(((3S)-1-((3-cyano-1-azetidinyl)sulfonyl)-3-piperidinyl)carbonyl)-D-prolinamide] was run?
The AC1.4 was 2.8405 µM.

How did the AC1.4 turn out when `CS(=O)(=O)c1ccc(N2CC(C#N)C2)c(C(=O)N2CCC[C@@H]2C(=O)N[C@@H](c2ccc(C(F)(F)F)cc2F)C2CC2)c1` [Example 550, (R)-1-(2-(3-cyanoazetidin-1-yl)-5-(methylsulfonyl)benzoyl)-N—((R)-cyclopropyl(2-fluoro-4-(trifluoromethyl)phenyl)methyl)pyrrolidine-2-carboxamide] was run?
Its AC1.4 is 2.8425 µM.

How did the AC1.4 turn out when `N#Cc1ccc(CNC(=O)[C@H]2CCCN2C(=O)[C@H]2CCCN(S(=O)(=O)N3CC(C#N)C3)C2)cc1` [Example 551, 1-(((3S)-1-((3-cyano-1-azetidinyl)sulfonyl)-3-piperidinyl)carbonyl)-N-(4-cyanobenzyl)-D-prolinamide] was run?
Its AC1.4 is 2.8435 µM.

For `CS(=O)(=O)c1cccc(C(=O)N2CCSCC2C(=O)N[C@@H](c2ccc(C(F)(F)F)cc2F)C2CC2)c1` (stereo partly drawn) [Example 552, N-((R)-cyclopropyl(2-fluoro-4-(trifluoromethyl)phenyl)methyl)-4-(3-(methylsulfonyl)benzoyl)thiomorpholine-3-carboxamide], which AC1.4 is on record?
The AC1.4 was 2.854 µM.

For `O=C(N[C@@H](c1ccc(C(F)(F)F)cc1F)C1CC1)[C@H]1C[C@H]2C[C@H]2N1C(=O)c1ccccc1NC(=O)C(F)(F)F` [Example 553, (1R,3R,5R)-N-((R)-cyclopropyl(2-fluoro-4-(trifluoromethyl)phenyl)methyl)-2-(2-(2,2,2-trifluoroacetamido)benzoyl)-2-azabicyclo[3.1.0]hexane-3-carboxamide], which AC1.4 is on record?
Its AC1.4 is 2.873 µM.

With `CCOc1ccc(S(C)(=O)=O)cc1C(=O)N1CCC[C@@H]1C(=O)N[C@@H](c1ccc(C(F)(F)F)cc1F)C1CC1` [Example 554, N-((R)-cyclopropyl(2-fluoro-4-(trifluoromethyl)phenyl)methyl)-1-(2-ethoxy-5-(methylsulfonyl)benzoyl)-D-prolinamide] as the compound, how does the AC1.4 read?
The AC1.4 was 2.688 µM.

`CCc1ccnc(C(=O)N2[C@@H](C(=O)N[C@@H](c3cc(F)c(Cl)cc3F)C3COC3)C[C@H]3C[C@H]32)c1` [Example 555, (1R,3R,5R)-N-((R)-(4-chloro-2,5-difluorophenyl)(3-oxetanyl)methyl)-2-((4-ethyl-2-pyridinyl)carbonyl)-2-azabicyclo[3.1.0]hexane-3-carboxamide] was tested. Which AC1.4 did it give?
Its AC1.4 is 2.893 µM.

For `O=C(N[C@@H](c1ccc(C(F)(F)F)cc1F)C1CC1)[C@H]1CCCN1C(=O)c1cccc(C(O)C(F)(F)F)c1` (stereo partly drawn) [Example 556, (2R)-N-((R)-cyclopropyl(2-fluoro-4-(trifluoromethyl)phenyl)methyl)-1-(3-(2,2,2-trifluoro-1-hydroxyethyl)benzoyl)pyrrolidine-2-carboxamide], which AC1.4 is on record?
Its AC1.4 is 2.9075 µM.

With `COc1ccc(CNC(=O)[C@H]2CCCN2C(=O)[C@H]2CCCN(S(=O)(=O)N3CC(C#N)C3)C2)c(F)c1` [Example 557, 1-(((3S)-1-((3-cyano-1-azetidinyl)sulfonyl)-3-piperidinyl)carbonyl)-N-(2-fluoro-4-methoxybenzyl)-D-prolinamide] as the compound, how does the AC1.4 read?
The AC1.4 was 2.9265 µM.

How did the AC1.4 turn out when `CS(=O)(=O)c1cccc(C(=O)N2[C@@H](C(=O)N[C@@H](c3ccc(C(F)(F)F)cc3F)C3(O)CC3)C[C@H]3C[C@H]32)c1` [Example 559, (1R,3R,5R)-N-((S)-(2-fluoro-4-(trifluoromethyl)phenyl)(1-hydroxycyclopropyl)methyl)-2-(3-(methylsulfonyl)benzoyl)-2-azabicyclo[3.1.0]hexane-3-carboxamrde] was run?
Its AC1.4 is 2.7115 µM.

For `O=C(NCc1ccc(C(F)(F)F)cc1)[C@H]1CCCN1C(=O)c1cccc(S(=O)(=O)N2CC[C@@H](O)C2)c1` [Example 560, 1-((3-(((3R)-3-hydroxy-1-pyrrolidinyl)sulfonyl)phenyl)carbonyl)-N-(4-(trifluoromethyl)benzyl)-D-prolinamide,1-((3-(((3S)-3-hydroxy-1-pyrrolidinyl)sulfonyl)phenyl)carbonyl)-N-(4-(trifluoromethyl)benzyl)-D-prolinamide], which AC1.4 is on record?
Its AC1.4 is 2.9638 µM.

How did the AC1.4 turn out when `N#CC1CN(S(=O)(=O)N2CCC[C@H](C(=O)N3CCC[C@@H]3C(=O)N[C@@H](CO)c3ccc(C(F)(F)F)cc3)C2)C1` [Example 561, 1-(((3S)-1-((3-cyano-1-azetidinyl)sulfonyl)-3-piperidinyl)carbonyl)-N-((1R)-2-hydroxy-1-(4-(trifluoromethyl)phenyl)ethyl)-D-prolinamide] was run?
The AC1.4 was 2.9935 µM.

`O=C(NCc1ccc(C(F)(F)F)cc1)[C@H]1CCCN1C(=O)[C@H]1CCCN(S(=O)(=O)N2CC(n3ccnc3)C2)C1` [Example 562, 1-(((3S)-1-((3-(1H-imidazol-1-yl)-1-azetidinyl)sulfonyl)-3-piperidinyl)carbonyl)-N-(4-(trifluoromethyl)benzyl)-D-prolinamide] was tested. Which AC1.4 did it give?
Its AC1.4 is 3.025 µM.

With `CS(=O)(=O)c1ccc(F)c(C(=O)N2CCC[C@@H]2C(=O)N[C@@H](c2ccc(C(F)(F)F)cc2F)C2CC2)c1F` [Example 563, N-((R)-cyclopropyl(2-fluoro-4-(trifluoromethyl)phenyl)methyl)-1-(2,6-difluoro-3-(methylsulfonyl)benzoyl)-D-prolinamide] as the compound, how does the AC1.4 read?
Its AC1.4 is 2.8195 µM.

For `CCN(CC)S(=O)(=O)c1cccc(C(=O)N2CCC[C@@H]2C(=O)NCc2ccc(C(F)(F)F)cc2)c1` [Example 564, 1-(3-(diethylsulfamoyl)benzoyl)-N-(4-(trifluoromethyl)benzyl)-D-prolinamide], which AC1.4 is on record?
The AC1.4 was 3.077 µM.

`N#CC1CN(S(=O)(=O)N2CCC[C@H](C(=O)N3CCC[C@@H]3C(=O)N[C@H]3Cc4ccccc43)C2)C1` [Example 565, N-((7S)-bicyclo[4.2.0]octa-1,3,5-trien-7-yl)-1-(((3S)-1-((3-cyano-1-azetidinyl)sulfonyl)-3-piperidinyl)carbonyl)-D-prolinamide] was tested. Which AC1.4 did it give?
The AC1.4 was 3.077 µM.

How did the AC1.4 turn out when `NS(=O)(=O)c1ccc(F)c(C(=O)N2CCC[C@@H]2C(=O)N[C@@H](c2ccc(C(F)(F)F)cc2F)C2CC2)c1` [Example 566, N-((R)-cyclopropyl(2-fluoro-4-(trifluoromethyl)phenyl)methyl)-1-(2-fluoro-5-sulfamoylbenzoyl)-D-prolinamide] was run?
The AC1.4 was 3.0845 µM.

How did the AC1.4 turn out when `CS(=O)(=O)c1ccc(C(=O)N2CCC[C@@H]2C(=O)NC(c2ccc(C(F)(F)F)cc2F)C2CC2)s1` (stereo partly drawn) [Example 567, (2R)-N-(cyclopropyl(2-fluoro-4-(trifluoromethyl)phenyl)methyl)-1-(5-(methylsulfonyl)thiophene-2-carbonyl)pyrrolidine-2-carboxamide] was run?
Its AC1.4 is 3.1075 µM.
